What is called IC50 is the concentration at which inhibition is half-maximal.

Assay [1] deals with A2780. In words: Cytotoxicity against human A2780 cells after 72 hrs by MTT assay. In kind it is functional, cell-based. The settings on record: A2780, 72 h. (Tetrazolium assays rely on reduction of a dye to a coloured formazan, in cell work by metabolically active cells.)
Another assay deals with T47D. In words: Cytotoxicity against human T47D cells after 48 hrs by MTT assay. The format is functional, cell-based.
Assay [2] can be described thus: Inhibition of TNFalpha-induced NFkappaB (unknown origin) activation expressed in HEK293 cells after 6 hrs by luciferase reporter gene based assay. The format is cell-based. The settings on record: Homo sapiens, HEK293, 6 h. (Reporter assays use an easily measured gene product as a stand-in for the process of interest.)
The test system of the next assay is L5178Y. In words: Cytotoxicity against mouse L5178Y cells by MTT assay. The format is functional, cell-based.
The subject of another assay is PC-12. In words: Cytotoxicity against rat PC12 cells by MTT assay. In kind it is functional, cell-based.
Assay [3] concerns HL-60. In words: Cytotoxicity against human HL60 cells by trypan blue exclusion assay. The format is functional, cell-based.
The subject of a further assay is K562. Briefly: Cytotoxicity against human K562 cells by trypan blue exclusion assay. The format is functional, cell-based.
Another assay relates to HepG2. In words: Cytotoxicity against human HepG2 cells after 72 hrs by MTT assay. The note with it: HepG2, 72 h. In kind it is functional, cell-based.
The next assay relates to MDA-MB-435. Briefly: Cytotoxicity against human MDA-MB-435 cells after 72 hrs by MTT assay. The note with it: MDA-MB-435, 72 h. In kind it is functional, cell-based.
Assay [4] has as its system HCT-116. Briefly: Cytotoxicity against human HCT116 cells after 72 hrs by MTT assay. The format is functional, cell-based. The settings on record: HCT-116, 72 h.
In assay [5] the test system is A549. In words: Cytotoxicity against human A549 cells by MTT assay. The format is functional, cell-based.
The next assay has as its system SH-SY5Y. Briefly: Cytotoxicity against human SH-SY5Y cells by MTT assay. In kind it is functional, cell-based.
The subject of the next assay is PC-3. In words: Cytotoxicity against human PC3 cells by MTT assay. The format is functional, cell-based.
Assay [6] has as its system MCF7. Briefly: Cytotoxicity against human MCF7 cells by MTT assay. In kind it is functional, cell-based.
For a further assay, the system named is NB-4. In words: Cytotoxicity against human NB4 cells by MTT assay. In kind it is functional, cell-based.
For assay [7], the system named is A2780. In words: Cytotoxicity against human A2780 cells by MTT assay. In kind it is functional, cell-based.
Assay [8] has as its system A549. Briefly: Cytotoxicity against human A549 cells after 24 hrs by MTT assay. In kind it is functional, cell-based. The settings on record: A549, 24 h.
A further assay deals with MKN-45. In words: Cytotoxicity against human MKN45 cells after 24 hrs by MTT assay. The format is functional, cell-based. The note with it: MKN-45, 24 h.
A further assay relates to LoVo. Briefly: Cytotoxicity against human LoVo cells after 24 hrs by MTT assay. The format is functional, cell-based.
Assay [9] concerns HL-60. Briefly: Cytotoxicity against human HL60 cells after 24 hrs by MTT assay. The settings on record: HL-60, 24 h. The format is functional, cell-based.
In another assay the test system is NCI-H460. In words: Cytotoxicity against human NCI-H460 cells. The format is functional, cell-based.
The nature of assay [10]: Cytotoxicity against human KATO III cells after 72 hrs by MTT assay. In kind it is functional, cell-based.
The test system of the next assay is NCI-H187. Briefly: Cytotoxicity against human NCI-H187 cells by resazurin microplate assay. The format is functional, cell-based. On the technique in general: Alamar Blue is a resazurin reagent that responds to reducing activity.
For a further assay, the system named is Vero. Briefly: Cytotoxicity against African green monkey Vero cells by resazurin microplate assay. The format is cell-based. The settings on record: Chlorocebus sabaeus.
Assay [11] deals with MCF7. Briefly: Cytotoxicity against human MCF7 cells by resazurin microplate assay. The format is functional, cell-based.
The next assay concerns HeLa. In words: Cytotoxicity against human HeLa cells by MTT assay. In kind it is functional, cell-based.
Assay [12] concerns HCT-116. In words: Cytotoxicity against human HCT116 cells by MTT assay. In kind it is functional, cell-based.
For the next assay, the system named is BT-549. Briefly: Cytotoxicity against human BT549 cells after 48 hrs by neutral red dye based assay. The settings on record: BT-549, 48 h. The format is functional, cell-based.
The next assay deals with SK-OV-3. Briefly: Cytotoxicity against human SKOV3 cells after 48 hrs by neutral red dye based assay. In kind it is functional, cell-based. The settings on record: SK-OV-3, 48 h.
Assay [13] has as its system KB. Briefly: Cytotoxicity against human KB cells after 48 hrs by neutral red dye based assay. The format is functional, cell-based.
The test system of assay [14] is KB. In words: Cytotoxicity against human KB cells by MTT assay. The format is functional, cell-based.
The subject of assay [15] is HL-60. In words: Cytotoxicity against human HL60 cells by CCK8 assay. In kind it is functional, cell-based.
The test system of assay [16] is A549. Briefly: Cytotoxicity against human A549 cells by CCK8 assay. The format is functional, cell-based.
A further assay concerns SMMC-7721. Briefly: Cytotoxicity against human SMMC7721 cells by CCK8 assay. In kind it is functional, cell-based.
Assay [17] has as its system MCF7. Briefly: Cytotoxicity against human MCF7 cells by CCK8 assay. In kind it is functional, cell-based.
The test system of the next assay is SW480. In words: Cytotoxicity against human SW480 cells by CCK8 assay. In kind it is functional, cell-based.
The test system of assay [18] is HL-60. In words: Cytotoxicity against human HL60 cells after 48 hrs by MTT assay. The note with it: HL-60, 48 h. In kind it is functional, cell-based.
Assay [19] is described as follows: Inhibition of TNFalpha-induced NFkappaB (unknown origin) activation expressed in HEK293 cells preincubated for 1 hr followed by TNFalpha stimulation and measured after 1 hr by dual luciferase reporter gene assay. The settings on record: Homo sapiens. The format is cell-based.

Values after ≈ are worked out from the molar mass of the structure shown.

In the assay on A2780 [1], `O=C1N[C@@]2(Cc3ccccc3O2)C(=O)N/C1=C\c1ccccc1O` registered an IC50 of 59 µM.

Turning to `CCCC[C@H](C)/C=C(C)/C=C/C(=O)O`, the IC50 in the assay on T47D was 1 to 10 µM.

For the compound `CCCCC[C@@H]1OC2=C(C(=O)N(OC)C2C[S@+]([O-])C[C@@H](O)C(=O)O)[C@H](O)[C@@]1(C)O` (some centres undefined), the IC50 in assay [2] worked out at 1.5 µM.

With `CCCCC[C@@H]1OC2=C(C(=O)N(OC)C2CSC[C@@H](O)C(=O)O)[C@H](O)[C@@]1(C)O` (some centres undefined), the IC50 in assay [2] amounted to 7.1 µM.

`CCCCCCCCCCC[C@@H](C)[C@@H]1CC(=O)N[C@@H]([C@H](C)O)C(=O)N[C@@H](C)C(=O)N[C@H](C)C(=O)N[C@@H](CCC(N)=O)C(=O)N[C@H](Cc2ccc(O)cc2)C(=O)N[C@@H]([C@@H](C)CC)C(=O)O1`: the IC50 with L5178Y was 5.71 µM; in the assay with PC-12, 9.55 µM.

As to `CCCCc1c(OC)cc(=O)oc1CO`, the IC50 was found to be 0.45 µg/mL (≈ 2.12 µM) in the assay with HL-60 [3] and 0.9 µg/mL (≈ 4.24 µM) with K562.

Take `O=Cc1cc(/C=C/c2cc(O)cc(O)c2C=O)ccc1O`: the IC50 in the assay with HepG2, in the assay on MDA-MB-435 and with HCT-116 [4] was less than 50 µM each time.

As for `COC(=O)[C@@H]1c2c(oc3cc(CCO)cc(O)c3c2=O)C=C[C@H]1O`, the IC50 with A549 [5] worked out at 5.6 µM; in the assay on SH-SY5Y, 4.1 µM; with PC-3, 2.8 µM; in the assay on MCF7 [6], 6.5 µM; with NB-4, 2.2 µM.

In the assay on A2780 [7], `O=C1N[C@H](Cc2ccccc2)C(=O)N[C@H]1Cc1cn([C@]23C[C@H]4C(=O)N[C@H](Cc5ccccc5)C(=O)N4[C@H]2Nc2ccccc23)c2ccccc12` gave a half-maximal inhibitory concentration (IC50) of 56.7 µM.

Consider `CCCC[C@H](O)C(=O)C/C(=C\C(=O)O)OC`, for which the IC50 in the assay on A549 [8], with MKN-45, in the assay with LoVo and in the assay on HL-60 [9] was less than 200 µM throughout.

`C=CC1(C)c2[nH]c3cc4c(cc3c2C[C@H]2C(=O)N3CCC[C@H]3C(=O)N21)C=CC(C)(C)O4` (some centres undefined) had an IC50 with NCI-H460 of 69.3 µM.

Regarding `CC[C@@H](O)[C@H](O)[C@@H]1C[C@](O)(OC)CC(=O)O1`, the IC50 with A549 [8], in the assay with MKN-45, in the assay on LoVo and in the assay with HL-60 [9] was less than 200 µM in each case.

Take `C[C@H]1[C@@H](/C=C2\C=CC(=O)O2)[C@H]2C=CC=C[C@@H]1O2`: the concentration for half-maximal inhibition (IC50) (in assay [10]; with NCI-H187; with Vero; in the assay on MCF7 [11]) was 1.95 to 40.2 µg/mL (≈ 8.47 to 174 µM) throughout.

Consider `CCCCc1c(OC)cc(=O)oc1C`, for which the values for the concentration for half-maximal inhibition (IC50) in the assay with A549 [5], in the assay with HeLa and in the assay with HCT-116 [12] were 38.7 µM, 27 µM and 45.1 µM, respectively.

Consider `C[C@@H]1CC[C@@]23[C@H](C)CC[C@@H](C[C@H]2[C@]2(C)CC(=O)[C@H]12)C3(C)C`, for which the 50% inhibitory concentration (IC50) was found to be 30.1 µM in the assay on HeLa and 30.7 µM in the assay on MCF7 [6].

For `C=C(CC[C@@H](C)[C@H]1CC=C2C3=C([C@@H](O)[C@H](OC(C)=O)[C@@]21C)[C@@]1(C)C[C@@H](O)[C@H](OC(=O)c2ccc(O)cc2)C(C)(C)[C@@H]1CC3)C(C)C`, the concentration for half-maximal inhibition (IC50) in the assay on BT-549 was 2.46 µM; in the assay with SK-OV-3, 3.01 µM; with KB [13] it was 2.54 µM.

Compound `COC(=O)c1cc(OC)cc(OC)c1C(=O)c1coc2c1OC(C)CC2=O` (centres undefined) had an IC50 in the assay with KB [14] of 4.7 µM.

On to `C=C1[C@@H](C)[C@H]2[C@H](Cc3ccccc3)NC(=O)[C@]23C(=O)/C=C/C(=O)CCC[C@@H](C)C/C=C/[C@H]3[C@@H]1O`, for which the IC50 with HL-60 [15], in the assay on A549 [16], with SMMC-7721, in the assay on MCF7 [17] and in the assay with SW480 was 7.7 to 15.8 µM throughout.

Take `COc1ccc(O)c2c(=O)oc3cc(O)cc(C)c3c12`: the IC50 in the assay with HL-60 [18] amounted to 85 µM.

In the case of `C=C(CC[C@@H](C)[C@H]1CC=C2C3=C([C@@H](O)[C@H](OC(C)=O)[C@@]21C)[C@@]1(C)C[C@@H](OC(C)=O)[C@H](OC(C)=O)C(C)(C)[C@@H]1CC3)C(C)C`, the IC50 was 1.82 µM with BT-549, 1.32 µM with SK-OV-3 and 0.18 µM with KB [13].

On to `C[C@@H]1CO[C@@]2(O)[C@@H]1C[C@]1(C)[C@@H](C)CC[C@H](O)[C@@]13O[C@@H]23`, for which the midpoint of inhibition in assay [19], the IC50, lay at 7.11 µM.

The values above are taken from ChEMBL document CHEMBL4411258, “Novel natural compounds from endophytic fungi with anticancer activity” (Eur J Med Chem, 2018).
